Assay results published in PubChem BioAssay AID330 (DTP/NCI, 2004).
Values joined by “and” are separate entries in the source; they are usually repeats but may differ in a detail not shown here. Identical values can stand only once. Inconclusive results and toxic doses are left out. Rule for the calls: active = survival T/C of 150% or more; inactive = T/C below 125% in these data.

System: P388 leukemia ip, CD2F1 mice, survival T/C
Assay: NCI In Vivo Anticancer Drug Screen. Data for tumor model P388 Leukemia (intraperitoneal) in CD2F1 (CDF1) mice
Settings: endpoint: median survival time, higher = longer survival
Procedure, shortened: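 Mice carrying the transplanted tumor received test compound or vehicle. Survival was recorded in each group, and the value is the treated-group measurement divided by that of the vehicle-treated control group.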

[1] = dose: 50.0 mg/kg/injection, schedule: Q01DX005 (ip), vehicle: saline with Tween-80
[2] = dose: 100.0 mg/kg/injection, schedule: Q01DX005 (ip), vehicle: saline with Tween-80
[3] = dose: 200.0 mg/kg/injection, schedule: Q01DX005 (ip), vehicle: saline with Tween-80
[4] = dose: 25.0 mg/kg/injection, schedule: Q01DX005 (ip), vehicle: Klucel (hydroxypropylcellulose) (HPC)
[5] = dose: 50.0 mg/kg/injection, schedule: Q01DX005 (ip), vehicle: Klucel (hydroxypropylcellulose) (HPC)
[6] = dose: 100.0 mg/kg/injection, schedule: Q01DX005 (ip), vehicle: Klucel (hydroxypropylcellulose) (HPC)
[7] = dose: 200.0 mg/kg/injection, schedule: Q01DX005 (ip), vehicle: Klucel (hydroxypropylcellulose) (HPC)
[8] = dose: 60.0 mg/kg/injection, schedule: Q01DX005 (ip), vehicle: Klucel (hydroxypropylcellulose) (HPC)
[9] = dose: 120.0 mg/kg/injection, schedule: Q01DX005 (ip), vehicle: Klucel (hydroxypropylcellulose) (HPC)
[10] = dose: 240.0 mg/kg/injection, schedule: Q01DX005 (ip), vehicle: Klucel (hydroxypropylcellulose) (HPC)
[11] = dose: 50.0 mg/kg/injection, schedule: Q01DX009 (ip), vehicle: saline with Tween-80
[12] = dose: 50.0 mg/kg/injection, schedule: Q01DX009 (ip), vehicle: saline
[13] = dose: 100.0 mg/kg/injection, schedule: Q01DX009 (ip), vehicle: saline with Tween-80
[14] = dose: 100.0 mg/kg/injection, schedule: Q01DX009 (ip), vehicle: saline
[15] = dose: 200.0 mg/kg/injection, schedule: Q01DX009 (ip), vehicle: saline with Tween-80
[16] = dose: 200.0 mg/kg/injection, schedule: Q01DX009 (ip), vehicle: saline
[17] = dose: 400.0 mg/kg/injection, schedule: Q01DX009 (ip), vehicle: saline with Tween-80
[18] = dose: 100.0 mg/kg/injection, schedule: Q04DX003 (ip), vehicle: saline with Tween-80
[19] = dose: 200.0 mg/kg/injection, schedule: Q04DX003 (ip), vehicle: saline with Tween-80
[20] = dose: 60.0 mg/kg/injection, schedule: Q01DX005 (ip), vehicle: saline with Tween-80
[21] = dose: 120.0 mg/kg/injection, schedule: Q01DX005 (ip), vehicle: saline with Tween-80
[22] = dose: 240.0 mg/kg/injection, schedule: Q01DX005 (ip), vehicle: saline with Tween-80

Measured: T/C

O=c1[nH]c(Br)nc2nc[nH]c12
inactive: [1] 93 % of control | [2] 94 % of control | [3] 92 % of control

CC(=O)O.CC(=O)O.CC(=O)O.CC(=O)O.O=C(O)C1C[N-]CC(C(=O)O)C1.O=C(O)C1C[N-]CC(C(=O)O)C1.[Cu+].[Cu+] (centres undefined)
inactive: dose: 3.12 mg/kg/injection, schedule: Q01DX005 (ip), vehicle: suspension in saline 95 % of control | dose: 6.25 mg/kg/injection, schedule: Q01DX005 (ip), vehicle: suspension in saline 99 % of control | dose: 12.5 mg/kg/injection, schedule: Q01DX005 (ip), vehicle: suspension in saline 94 % of control

CC(C)(C)Oc1ccc(CC(NC(=O)OCC2c3ccccc3-c3ccccc32)C(=O)O)cc1 (centres undefined)
inactive: [4] 107 % of control | [5] 107 % of control and 109 % of control | [6] 120 % of control | [7] 104 % of control and 120 % of control

S=P(Oc1ccccc1)(N1CCCCN1)N1CCCCN1
inactive: [8] 97 % of control | [9] 107 % of control | [10] 100 % of control

NC(=O)C1CCCN1C(=O)C1CCCN(Cc2ccc(CN3CCCC(C(=O)N4CCCC4C(N)=O)C3)cc2)C1 (centres undefined)
inactive: dose: 60.0 mg/kg/injection, schedule: Q01DX005 (ip), vehicle: saline 106 % of control | dose: 120.0 mg/kg/injection, schedule: Q01DX005 (ip), vehicle: saline 97 % of control

CN1C(=O)[C@@H]2N(N(C)C1=O)[C@@]1(Br)C(=O)N(C)C(=O)[C@@]21Br
inactive: [8] 100 % of control | [9] 105 % of control | [10] 101 % of control

Cc1ccc(O)c(N)c1
inactive: [11] 94 % of control | [12] 98 % of control | [13] 100 % of control | [14] 104 % of control and 119 % of control | [15] 105 % of control | [16] 108 % of control and 95 % of control | [17] 121 % of control

O=C(NCCNC(=O)Nc1ccccc1S(=O)(=O)F)Nc1ccccc1S(=O)(=O)F
inactive: [11] 96 % of control | [13] 97 % of control | [15] 93 % of control

Nc1nnc(N)n1N
inactive: [11] 108 % of control | [13] 115 % of control | [15] 99 % of control | [17] 93 % of control

CCCCCCCC(=O)Nc1nnc(SCCCCCCCCCCSc2nnc(NC(=O)CCCCCCC)s2)s1
inactive: dose: 50.0 mg/kg/injection, schedule: Q01DX005 (ip), vehicle: Klucel + Tween-80 90 % of control | dose: 100.0 mg/kg/injection, schedule: Q01DX005 (ip), vehicle: Klucel + Tween-80 87 % of control | dose: 200.0 mg/kg/injection, schedule: Q01DX005 (ip), vehicle: Klucel + Tween-80 90 % of control

O=C(O)c1c[nH]c2cc(OCCc3ccccc3)ccc2c1=O
inactive: [12] 101 % of control | [14] 107 % of control | [16] 107 % of control

CCOC(=O)NC(NC(=O)OCC)c1ccncc1
inactive: dose: 100.0 mg/kg/injection, schedule: Q04DX003 (ip), vehicle: saline 94 % of control | dose: 200.0 mg/kg/injection, schedule: Q04DX003 (ip), vehicle: saline 98 % of control | dose: 400.0 mg/kg/injection, schedule: Q04DX003 (ip), vehicle: saline 99 % of control

O=C1c2ccccc2C(=O)C23OC12C1C=CC3CC1 (centres undefined)
inactive: dose: 50.0 mg/kg/injection, schedule: Q01DX001 (ip), vehicle: Klucel (hydroxypropylcellulose) (HPC) 94 % of control | dose: 100.0 mg/kg/injection, schedule: Q01DX001 (ip), vehicle: Klucel (hydroxypropylcellulose) (HPC) 91 % of control | dose: 200.0 mg/kg/injection, schedule: Q01DX001 (ip), vehicle: Klucel (hydroxypropylcellulose) (HPC) 93 % of control

COc1cc([C@@H]2c3cc4c(cc3[C@H](OC(=O)c3ccncc3)[C@H]3COC(=O)[C@H]23)OCO4)cc(OC)c1OC
inactive: dose: 6.25 mg/kg/injection, schedule: Q01DX005 (ip), vehicle: Klucel (hydroxypropylcellulose) (HPC) 101 % of control | dose: 12.5 mg/kg/injection, schedule: Q01DX005 (ip), vehicle: Klucel (hydroxypropylcellulose) (HPC) 104 % of control | [4] 118 % of control

CN(C)CCN(C)CCC(=O)/C=C/c1ccccc1
inactive: dose: 12.5 mg/kg/injection, schedule: Q01DX001 (ip), vehicle: saline 94 % of control | dose: 25.0 mg/kg/injection, schedule: Q01DX001 (ip), vehicle: saline 101 % of control | dose: 50.0 mg/kg/injection, schedule: Q01DX001 (ip), vehicle: saline 111 % of control

COC(=O)C(Cc1ccccc1)NCCNC(C)=O (centres undefined)
inactive: [18] 95 % of control | [19] 95 % of control

Cc1c(C#N)c2nc(N)c3ccccc3n2c1C
inactive: [5] 101 % of control | [6] 106 % of control | [7] 106 % of control

N#Cc1ccc2c(ccc3ncccc32)n1
inactive: dose: 25.0 mg/kg/injection, schedule: Q04DX002 (ip), vehicle: saline with Tween-80 100 % of control | dose: 50.0 mg/kg/injection, schedule: Q04DX002 (ip), vehicle: saline with Tween-80 100 % of control | dose: 100.0 mg/kg/injection, schedule: Q04DX002 (ip), vehicle: saline with Tween-80 101 % of control

O=C1CSC(c2ccc(C(F)(F)F)cc2)N1c1nncs1 (centres undefined)
inactive: [20] 99 % of control | [21] 104 % of control | [22] 97 % of control

CC(C)c1ccc2c(c1)CCC1C(C)(CN)CCCC21C (centres undefined)
inactive: [5] 97 % of control | [6] 99 % of control

O=C([CH-]C(=O)C(F)(F)F)C(F)(F)F.O=C([CH-]C(=O)C(F)(F)F)C(F)(F)F.O=C([CH-]C(=O)C(F)(F)F)C(F)(F)F.[Ru+3]
inactive: dose: 7.5 mg/kg/injection, schedule: Q01DX005 (ip), vehicle: Klucel (hydroxypropylcellulose) (HPC) 97 % of control | dose: 15.0 mg/kg/injection, schedule: Q01DX005 (ip), vehicle: Klucel (hydroxypropylcellulose) (HPC) 87 % of control

Clc1ccccc1C(Nc1cnccn1)Nc1cnccn1
inactive: [1] 120 % of control | [2] 114 % of control | [3] 110 % of control | dose: 400.0 mg/kg/injection, schedule: Q01DX005 (ip), vehicle: saline with Tween-80 121 % of control

Cc1nc2c(I)cccc2c(=O)n1CC(=O)NNC(N)=S
inactive: [18] 101 % of control | [19] 97 % of control | dose: 400.0 mg/kg/injection, schedule: Q04DX003 (ip), vehicle: saline with Tween-80 100 % of control

COc1cccc2c1C(=O)c1c(O)c3c(c(O)c1C2=O)C[C@@](O)(C(C)=O)CC3OC1CC(N/C(C)=C/C(=O)c2ccccc2)C(O)C(C)O1 (some centres undefined)
inactive: dose: 6.25 mg/kg/injection, schedule: Q04DX003 (ip), vehicle: saline with Tween-80 105 % of control | dose: 12.5 mg/kg/injection, schedule: Q04DX003 (ip), vehicle: saline with Tween-80 104 % of control | dose: 25.0 mg/kg/injection, schedule: Q04DX003 (ip), vehicle: saline with Tween-80 105 % of control and 107 % of control | dose: 50.0 mg/kg/injection, schedule: Q04DX003 (ip), vehicle: saline with Tween-80 101 % of control and 111 % of control

O=C(Nc1ccccc1)ON=C1CCCCC1
inactive: [20] 101 % of control | [21] 96 % of control | [22] 99 % of control

Cc1cc(-c2ccc(N3C(=O)CC4(CCCCC4)C3=O)c(C)c2)ccc1N1C(=O)CC2(CCCCC2)C1=O
inactive: dose: 100.0 mg/kg/injection, schedule: Q04DX003 (ip), vehicle: Klucel (hydroxypropylcellulose) (HPC) 90 % of control | dose: 200.0 mg/kg/injection, schedule: Q04DX003 (ip), vehicle: Klucel (hydroxypropylcellulose) (HPC) 90 % of control

O=C(O)c1cc2ccc3cccc4ccc(c1)c2c34
inactive: [1] 96 % of control | [2] 102 % of control

CCOC(=O)CC1(C)NCCS1 (centres undefined)
inactive: [12] 96 % of control | [14] 99 % of control | [16] 96 % of control

OCC1(c2ccncc2)OCCO1
inactive: dose: 50.0 mg/kg/injection, schedule: Q01DX005 (ip), vehicle: saline 101 % of control | dose: 100.0 mg/kg/injection, schedule: Q01DX005 (ip), vehicle: saline 104 % of control | dose: 200.0 mg/kg/injection, schedule: Q01DX005 (ip), vehicle: saline 92 % of control
